This note sets out measurements from patent publication US20250002527A1, “STEROID COMPOUND AND CONJUGATE THEREOF” (DUALITY BIOLOGICS (SUZHOU) CO., LTD., priority 2021, published 2025).

Holding throughout (format): cell-based
Experiment [1] deals with human PBMC cells. As to the kind of experiment: TNF-α secretion from PBMC under R848 stimulation (compounds). The settings on record: R848 5 μM, 24 hours, mean ± standard deviation. As to the method:
(§1) The compounds of the present application were tested for their inhibitory effect on the production of peripheral blood monocytes. The peripheral blood monocytes were treated in vitro with the ligand-drug conjugate at different concentrations, and IFNα and TNFα generated by the peripheral blood monocytes were quantitatively detected after a certain time. The compounds of the present invention were evaluated for in-vitro activity.
(§2) The cryopreserved human PBMC cells were resuspended in a complete medium and counted, and the cell suspension was adjusted to 2.5×10*6 cells/mL with the culture medium. After the suspension was centrifuged to collect the cells the next day, the cells were resuspended using fresh culture medium. Test compounds were diluted to 4-fold final concentration in cell culture medium, 50 μL of the compounds were added into a 96-well cell plate, and 100 μL of diluted cells ([…]) were added into each well of the 96-well plate containing the compounds, followed by addition of 50 μL R848 to a final concentration of 5 μM. The cell plate was incubated at 37° C. with 5% CO2 for 24 hours. The supernatant was collected, and the TNF-α and IFN-α concentration levels in the supernatant were detected using an ELISA kit.
TNF-α concentration assay was performed using Dakewe TNF-α ELISA kit (Cat #1117202), 100 μL of the serially-diluted cytokine standard was added into each well, 100 μL of the above supernatant diluted 10-fold was added into each well, and 100 μL of 1× dilution buffer R was added into each blank well. 50 μL of biotinylated antibody working solution was added into each well. After mixing well, the plate was covered with the plate-sealing membrane and incubated at room temperature for 3 hours. The plate was washed for 3 times: the liquid in each well was discarded, and 300 μL of 1× washing buffer working solution was added into each well; after 1 minute of residence, the liquid in the wells was discarded. The procedure was repeated for 3 times. 100 μL of Streptavidin-HRP working solution was added into each well. The plate was covered with the plate-sealing membrane and incubated at room temperature for 20 minutes. The plate was washed for 3 times, 100 μL of TMB liquid was added into each well, and the plate was incubated for 25 minutes at room temperature (18-25° C.) in the dark. The reaction was stopped by adding 100 μL stop solution rapidly to each well. The reading at a wavelength of 450 nm was detected by an M2e instrument within 10 minutes after termination.
(§3) The contents of TNF-α and IFN-α were calculated from the OD450 values.

The test system of experiment [2] is human PBMC cells. As to the kind of experiment: IFN-α secretion from PBMC under R848 stimulation (compounds). The settings on record: R848 5 μM, 24 hours, mean ± standard deviation. As to the method:
as §1, §2
50 μL of biotinylated antibody working solution was added into each well. After mixing well, the plate was covered with the plate-sealing membrane and incubated at room temperature for 3 hours. […] The procedure was repeated for 3 times. 100 μL of Streptavidin-HRP working solution was added into each well. The plate was covered with the plate-sealing membrane and incubated at room temperature for 20 minutes. The plate was washed for 3 times, 100 μL of TMB liquid was added into each well, and the plate was incubated for 25 minutes at room temperature (18-25° C.) in the dark. The reaction was stopped by adding 100 μL stop solution rapidly to each well. The reading at a wavelength of 450 nm was detected by an M2e instrument within 10 minutes after termination.
as §3

Another experiment addresses T1, glucocorticoid receptor (Homo sapiens, UniProt P04150).
T1 construct: expressed in transfected cells; host or cells: HEK293
T1 sequence (P04150 1-777): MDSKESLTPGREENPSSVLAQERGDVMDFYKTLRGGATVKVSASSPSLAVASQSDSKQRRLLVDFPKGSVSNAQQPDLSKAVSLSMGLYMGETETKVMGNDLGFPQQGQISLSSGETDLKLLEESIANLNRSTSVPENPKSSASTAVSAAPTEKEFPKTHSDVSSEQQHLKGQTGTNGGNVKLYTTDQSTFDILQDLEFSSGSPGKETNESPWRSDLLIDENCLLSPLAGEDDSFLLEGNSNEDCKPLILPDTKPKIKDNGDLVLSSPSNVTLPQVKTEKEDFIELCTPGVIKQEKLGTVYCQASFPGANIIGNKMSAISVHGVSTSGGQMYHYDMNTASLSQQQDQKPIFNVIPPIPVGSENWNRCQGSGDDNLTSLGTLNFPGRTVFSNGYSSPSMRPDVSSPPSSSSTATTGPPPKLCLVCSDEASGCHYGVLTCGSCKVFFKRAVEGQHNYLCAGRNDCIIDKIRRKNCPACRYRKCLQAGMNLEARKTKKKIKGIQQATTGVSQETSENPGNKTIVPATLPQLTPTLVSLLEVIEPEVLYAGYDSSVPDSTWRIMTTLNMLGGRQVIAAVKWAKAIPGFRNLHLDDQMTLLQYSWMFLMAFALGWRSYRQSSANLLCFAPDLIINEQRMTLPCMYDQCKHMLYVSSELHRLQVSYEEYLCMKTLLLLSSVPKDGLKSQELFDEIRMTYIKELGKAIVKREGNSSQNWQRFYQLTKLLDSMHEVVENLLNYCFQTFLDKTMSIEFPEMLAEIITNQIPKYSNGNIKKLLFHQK
As to the kind of experiment: Measurement 1 of glucocorticoid receptor reporter gene GRE activity. The settings on record: HEK293 transfected with pGL5 and pBIND-GR, 24 hours. As to the method:
HEK293 cells were cultured in DMEM+10% FBS medium in a carbon dioxide incubator humidified at 37° C. at 5% carbon dioxide.
The prepared transfection mixtures were added to 10 mL of the cell density-adjusted resuspension, mixed well by turning the mixtures upside down, and seeded into a 96-well plate at a volume of 100 μL/well.
The test plate was detected using the Dual-Glo Luciferase Assay System kit from Promega, and the fluorescence signal of Firefly Luciferase and the fluorescence signal of Renilla Luciferase were read using Enspire, respectively.
The final measurement value was a normalized value “F/R” obtained by dividing the Firefly Luciferase fluorescent signal by the Renilla Luciferase fluorescent signal.
The data were copied and pasted into Excel, and the activation rate was obtained through an equation.
The data were imported into MS Excel and subjected to curve fitting by using XLFit excel add-in version 5.4.0.8 to obtain an EC50 value.
Y is the agonism and X is the concentration of the compound.
On the technique in general: Reporter assays use an easily measured gene product as a stand-in for the process of interest.

One may read the EC50 as the concentration at which the effect is half-maximal. A high value points to a less potent agent.

In the case of `C[C@]12C=CC(=O)C=C1CC[C@@H]1[C@@H]2[C@@H](O)C[C@@]2(C)[C@H]1C[C@H]1O[C@@H](c3ccc(Cc4ccc(CO)cc4)cc3)O[C@]12C(=O)CO` [Compound 4], the “TNF-α secretion (pg/mL) from PBMC under R848 stimulation” value stood at 443.6 pg/mL with human PBMC cells [1] (compound 4 nM), 320 pg/mL with human PBMC cells [1] (compound 20 nM) and 356.1 pg/mL in the experiment with human PBMC cells [1] (compound 100 nM). For the same compound, the entries for the “IFN-α secretion (pg/mL) from PBMC under R848 stimulation” value with human PBMC cells [2] (compound 4 nM), in the experiment on human PBMC cells [2] (compound 20 nM) and with human PBMC cells [2] (compound 100 nM) were 13.2 ± 13.2 pg/mL, 27.9 ± 27.9 pg/mL and 0 ± 0 pg/mL, respectively. Further, the EC50 on glucocorticoid receptor was 40 pM.
